We go through 8 compounds from paper PMC8221158, “Novel pyrrolizines bearing 3,4,5-trimethoxyphenyl moiety: design, synthesis, molecular docking, and biological evaluation as potential multi-target cytotoxic agents” (Journal of Enzyme Inhibition and Medicinal Chemistry, 2021).

Series [1] concerns the target T1, CDK-2 (Homo sapiens, UniProt P24941).
T1 construct: purchased Promega, Madison, WI
The arrangement: method as in PMID 17064068. The following applies: read-out: IC50 against CDK-2; cited from earlier work.

For series [2], the system named is MCF-7, HCT116, and A2780 cancer cell lines. Description: MTT assay, three cancer cell lines taken together (average, overall range). The class given is cell-based, human. To be noted: Homo sapiens; MCF-7, HCT116, A2780; read-out: Average of the three IC50 values against the three cancer cell lines. For orientation: Tetrazolium assays rely on reduction of a dye to a coloured formazan, in cell work by metabolically active cells.

The subject of series [3] is MCF-7. The following applies: MTT, 72 h; read-out: IC50 (µM ± SD) MCF-7; cited from earlier work.
Series [4] relates to A2780. The following applies: MTT, 72 h; read-out: IC50 (µM ± SD) A2780; cited from earlier work.
Series [5] relates to normal MRC-5 cells. Also noted: method as in PMID 31655429. To be noted: 72 h; read-out: IC50 (µM ± SD) MRC-5; cited from earlier work.
Series [6] relates to MCF-7 cells. The arrangement: method as in PMID 31655429. To be noted: 1 µM, 24 h; control 17.3%; cited from earlier work.
Series [7] relates to 20 kinases. The arrangement: method as in PMID 31655429. The following applies: ALK1, CDK-2/cyclin A1, DYRK3, GSK3 alpha, NEK1; cited from earlier work.
In series [8] the target is T2, porcine tubulin (Sus scrofa, UniProt P02550+P02554).
T2 construct: purchased Cytoskeleton Inc., Denver, CO BK011P
T2 sequence (P02550 whole entry): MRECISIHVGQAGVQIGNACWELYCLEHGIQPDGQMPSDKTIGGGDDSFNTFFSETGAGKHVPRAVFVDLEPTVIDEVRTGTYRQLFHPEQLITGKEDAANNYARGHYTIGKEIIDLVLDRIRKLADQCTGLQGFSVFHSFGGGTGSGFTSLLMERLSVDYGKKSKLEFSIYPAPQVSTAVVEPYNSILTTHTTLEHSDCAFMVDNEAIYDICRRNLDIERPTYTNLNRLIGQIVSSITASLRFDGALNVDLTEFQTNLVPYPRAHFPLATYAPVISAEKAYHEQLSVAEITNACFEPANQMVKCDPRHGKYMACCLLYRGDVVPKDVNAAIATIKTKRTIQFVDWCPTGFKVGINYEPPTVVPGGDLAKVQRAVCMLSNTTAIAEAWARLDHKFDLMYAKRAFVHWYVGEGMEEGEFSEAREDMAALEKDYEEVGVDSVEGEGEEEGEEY
T2 sequence (P02554 whole entry): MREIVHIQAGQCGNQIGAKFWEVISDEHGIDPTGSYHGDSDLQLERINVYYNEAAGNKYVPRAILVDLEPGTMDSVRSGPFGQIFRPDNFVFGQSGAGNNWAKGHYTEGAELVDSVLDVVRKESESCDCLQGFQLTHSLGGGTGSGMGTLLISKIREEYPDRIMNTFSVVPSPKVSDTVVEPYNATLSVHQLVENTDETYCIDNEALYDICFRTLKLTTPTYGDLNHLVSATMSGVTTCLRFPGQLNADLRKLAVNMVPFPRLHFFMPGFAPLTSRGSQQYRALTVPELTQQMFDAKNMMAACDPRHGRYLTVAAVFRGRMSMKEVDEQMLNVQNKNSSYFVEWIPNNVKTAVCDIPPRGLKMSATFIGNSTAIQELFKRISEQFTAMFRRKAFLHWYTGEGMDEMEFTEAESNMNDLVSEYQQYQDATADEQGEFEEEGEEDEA
Description: Tubulin polymerisation fluorescence-based assay. The class given is biochemical. The procedure:
The effect of compounds 16a,b,d on tubulin polymerisation was measured in vitro using tubulin polymerisation fluorescence-based assay (cytoskeleton, cat. BK011P, https://www.cytoskeleton.com/bk011p). The assay was performed following the previous report[22] and according to the manufacturer’s instructions. Briefly, 2 mg/mL porcine tubulin was dissolved in buffer 1 (80 mM PIPES, 2 mM MgCl2, 0.5 mM EGTA pH 6.9, 10 µM fluorescent reporter, 1 mM GTP, 15% glycerol) to a final concentration of […]. Then tubulin solution was transferred to a pre-warmed 96-well plate that contained the test compounds 16a,b,d (5 μM), paclitaxel (3 μM), CaCl2 (0.5 μM), and control buffer. The polymerisation of tubulin was monitored as fluorescence at 37 °C for 60 min. Relative fluorescence units (RFU) were determined at 360 nm for excitation and at 460 nm for emission using the Varioskan Flash spectral scanning multimode reader (Thermo Fisher Scientific, Roskilde, Denmark) at a reading speed of 1 cycle/min.
In the current study, the new compounds were designed bearing the trimethoxy phenyl moiety aiming to obtain new cytotoxic agents that can interfere with tubulin polymerisation in cancer cells. […] In this assay, light scattering by microtubules which is directly proportional to the concentration of the microtubule polymer was used as a measure of tubulin polymerisation. The study was performed using a fluorescence-based tubulin polymerisation assay kit (Cytoskeleton Inc., Denver, CO; Cat # BK011P) following the manufacturer’s instructions (https://www.cytoskeleton.com/bk011p) and according to the previous report.
Paclitaxel (3 μM) was used as a tubulin polymerisation enhancer (positive control, enhancer), while calcium chloride (CaCl2, 0.5 μM) was used as a positive control (inhibitor) as per the manufacturer’s instructions (https://www.cytoskeleton.com/pdf-storage/datasheets/bk011p.pdf). The vehicle was also used to evaluate the polymerisation when tubulin is incubated in the absence of the test compound. The effect of the selected compounds (5 μM) on tubulin polymerisation was evaluated and compared with those of the positive control. The results are represented in Figure 8.

Series [9] has as its target T3, Aurora A (Homo sapiens, UniProt O14965).
T3 sequence (O14965 1-403): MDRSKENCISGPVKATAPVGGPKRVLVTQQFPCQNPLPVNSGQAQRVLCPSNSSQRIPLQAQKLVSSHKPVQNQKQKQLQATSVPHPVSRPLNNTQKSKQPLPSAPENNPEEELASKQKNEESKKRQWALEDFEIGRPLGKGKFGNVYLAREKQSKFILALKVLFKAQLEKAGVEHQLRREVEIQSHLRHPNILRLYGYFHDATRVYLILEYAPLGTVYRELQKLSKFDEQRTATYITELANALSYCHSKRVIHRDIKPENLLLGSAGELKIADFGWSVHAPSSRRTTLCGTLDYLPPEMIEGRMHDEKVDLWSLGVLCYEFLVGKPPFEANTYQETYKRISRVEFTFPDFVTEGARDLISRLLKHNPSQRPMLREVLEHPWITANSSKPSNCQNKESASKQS
The series is described as follows: Kinase profiling test. The following applies: stated as inhibition. The class given is biochemical. The procedure:
The test was performed using the radiolabeled ATP determination method (KINEXUS Bioinformatics Corporation, Vancouver, Canada). The test was performed following the previous reports[13]^,[20].
The three compounds were tested at the same concentration (10 μM) against the same 20 kinases used in the previous report. The test was performed by KINEXUS Bioinformatics Corporation (Vancouver, Canada), following previous reports[13]^,[20].

Series [10] has as its system VEGFR-2. The arrangement: method as in PMID 24890652. To be noted: cited from earlier work.
Series [11] concerns tubulin assembly. The arrangement: method as in PMID 24890652. The following applies: cited from earlier work.
Series [12] has as its system HDAC1. The following applies: cited from earlier work.
Series [13] concerns HDAC2. To be noted: cited from earlier work.
Series [14] relates to HDAC3. To be noted: cited from earlier work.
Series [15] relates to a panel of cancer cell lines. The following applies: read-out: cytotoxic activity IC50; cited from earlier work.

Broadly, the IC50 is the concentration that inhibits the measured activity by half. Usually inhibition stands for the relative decrease from the control value, in per cent. A high value points to strong suppression.

Turning to `Nc1n[nH]c(N)c1/N=N/c1ccc(O)cc1` [CAN508, 4-[(E)-(3,5-diamino-1H-pyrazol-4-yl)diazenyl)phenol], in series [1], the IC50 was 3500 nM.
In the case of `CC(C)C/C=N/c1c(C#N)c2n(c1C(=O)Nc1ccc(Br)cc1)CCC2` [9a], the half-inhibitory concentration (IC50) is 310 nM in series [2], 0.1 ± 0.05 µM in series [3], 0.52 ± 0.02 µM in [4] and 25.8 ± 0.73 µM in series [5]. Further, the “Cell cycle S phase %” value in series [6] is 55.6%. In [7], the “inhibition% over the inhibited kinases of the panel” value is recorded as 3–25%.
With `[Ca+2].[Cl-].[Cl-]` [CaCl2, calcium chloride, reference compound], the “effect on tubulin polymerisation” value in [8] (0.5 μM, positive control (inhibitor)) is “inhibited tubulin polymerisation and reduced the final polymer mass”.
In series [9], `Cc1ccc(NC(=O)c2ccc(CN3CCN(C)CC3)cc2)cc1Nc1nccc(-c2cccnc2)n1` [Imatinib, reference compound] registered an inhibition at 10 µM of 38%.
Regarding `N#Cc1c(/N=C/c2ccccc2)c(C(=O)Nc2ccc(Br)cc2)n2c1CCC2` [9b], the IC50 in series [2] is 2330 nM; in series [3], 0.5 ± 0.15 µM; in series [4] it was 4.16 ± 1.27 µM; in series [5], 9 ± 0.13 µM.
Turning to `COc1ccc(N(C)c2nc(C)nc3oc(C)cc23)cc1` [compound 7], the half-maximal inhibitory concentration (IC50) in series [10] is […]; in series [11], 1.9 nM.
As to `CC(=O)O[C@H]1C(=O)[C@@]2(C)[C@H]([C@H](OC(=O)c3ccccc3)[C@]3(O)C[C@H](OC(=O)[C@H](O)[C@@H](NC(=O)c4ccccc4)c4ccccc4)C(C)=C1C3(C)C)[C@]1(OC(C)=O)CO[C@@H]1C[C@@H]2O` [paclitaxel, reference compound], the “effect on tubulin polymerisation” value in series [8] (3 μM, positive control (enhancer)) was “eliminated the nucleation phase I and enhanced the growth phase II”.
Consider `COc1cc2c(c(OC)c1OC)-c1ccc(OC)c(=O)cc1[C@@H](NCc1ccc(C(=O)Nc3ccccc3N)cc1)CC2` [compound 8], for which the IC50 in series [12] was 12500 nM; in [13], 6730 nM; in series [14], 11200 nM; in series [15], 2 to 105 nM.
